From PMC8515367 (ACS Omega, 2021)
Where a chain is given by its changes, count along the chain named. Several values for one entry are separate records, joined by “and”; a condition that tells them apart may be missing. Equal entries are not always repeated. Where two headings read alike, the source gives them in different places.

Key:
T113V mutants of ecDHFR = conditions: cited from earlier work
T113V/G121S-ecDHFR [1] = molecular target: T1, T113V/G121S-ecDHFR (Escherichia coli, UniProt P0ABQ4, G121S/T113V); assay: Ligand-binding assay, tryptophan fluorescence titration
T1 sequence (P0ABQ4 1-159 T113V/G121S): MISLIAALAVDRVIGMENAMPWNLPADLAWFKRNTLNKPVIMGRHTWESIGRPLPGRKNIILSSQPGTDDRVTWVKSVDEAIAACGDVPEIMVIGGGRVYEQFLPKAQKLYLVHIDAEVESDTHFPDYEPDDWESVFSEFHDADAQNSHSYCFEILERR

M42F/G121S-ecDHFR [2] = molecular target: T2, M42F/G121S-ecDHFR (Escherichia coli, UniProt P0ABQ4, G121S/M42F); assay: as above
T2 sequence (P0ABQ4 1-159 M42F/G121S): T1 sequence (P0ABQ4 1-159 T113V/G121S) with M42F, V113T

T113V/G121S-ecDHFR [3] = molecular target: T1, T113V/G121S-ecDHFR; assay: Double-mutant cycle analysis of ligand binding; conditions: A′ = T113V, B′ = G121S
G121V-ecDHFR [4] = molecular target: T3, G121V-ecDHFR (Escherichia coli, UniProt P0ABQ4, G121V); assay: Ligand-binding assay, tryptophan fluorescence titration
T3 sequence (P0ABQ4 1-159 G121V): T1 sequence (P0ABQ4 1-159 T113V/G121S) with V113T, S121V

G121S-ecDHFR [5] = molecular target: T4, G121S-ecDHFR (Escherichia coli, UniProt P0ABQ4, G121S); assay: as above
T4 sequence (P0ABQ4 1-159 G121S): T1 sequence (P0ABQ4 1-159 T113V/G121S) with V113T

wildtype ecDHFR [6] = molecular target: T5, wildtype ecDHFR (Escherichia coli, UniProt P0ABQ4); assay: as above
T5 sequence (P0ABQ4 1-159): T1 sequence (P0ABQ4 1-159 T113V/G121S) with V113T, S121G

T113V/G121V-ecDHFR [7] = molecular target: T6, T113V/G121V-ecDHFR (Escherichia coli, UniProt P0ABQ4, G121V/T113V); assay: as above
T6 sequence (P0ABQ4 1-159 T113V/G121V): T1 sequence (P0ABQ4 1-159 T113V/G121S) with S121V

M42F/G121V-ecDHFR [8] = molecular target: T7, M42F/G121V-ecDHFR (Escherichia coli, UniProt P0ABQ4, G121V/M42F); assay: as above
T7 sequence (P0ABQ4 1-159 M42F/G121V): T1 sequence (P0ABQ4 1-159 T113V/G121S) with M42F, V113T, S121V

M42F/G121V-ecDHFR [9] = molecular target: T7, M42F/G121V-ecDHFR; assay: Double-mutant cycle analysis of ligand binding; conditions: A′ = M42F, B′ = G121V
T113V-ecDHFR = molecular target: T8, T113V-ecDHFR (Escherichia coli, UniProt P0ABQ4, T113V); assay: Ligand-binding assay, tryptophan fluorescence titration
T8 sequence (P0ABQ4 1-159 T113V): T1 sequence (P0ABQ4 1-159 T113V/G121S) with S121G

T113V/G121V-ecDHFR [10] = molecular target: T6, T113V/G121V-ecDHFR; assay: Double-mutant cycle analysis of ligand binding; conditions: A′ = T113V, B′ = G121V
M42F/G121S-ecDHFR [11] = molecular target: T2, M42F/G121S-ecDHFR; assay: Double-mutant cycle analysis of ligand binding; conditions: A′ = M42F, B′ = G121S
G121V-ecDHFR [12] = molecular target: T3, G121V-ecDHFR; conditions: cited from earlier work
G121S-ecDHFR [13] = molecular target: T4, G121S-ecDHFR; conditions: cited from earlier work
M42F-ecDHFR = molecular target: T9, M42F-ecDHFR (Escherichia coli, UniProt P0ABQ4, M42F); assay: Ligand-binding assay, tryptophan fluorescence titration
T9 sequence (P0ABQ4 1-159 M42F): T1 sequence (P0ABQ4 1-159 T113V/G121S) with M42F, V113T, S121G

wildtype ecDHFR [14] = molecular target: T5, wildtype ecDHFR; conditions: read-out: KD^NADPH, previous reports; cited from earlier work

In the case of `Nc1nc(=O)c2c([nH]1)NCC(CNc1ccc(C(=O)N[C@@H](CCC(=O)O)C(=O)O)cc1)=N2` [H2F, 7,8-dihydrofolate], the “decrease in H2F-binding affinity” value (T113V mutants of ecDHFR) is given as 20–30 fold.

Work on `NC(=O)C1=CN([C@@H]2O[C@H](COP(=O)(O)OP(=O)(O)OC[C@H]3O[C@@H](n4cnc5c(N)ncnc54)[C@H](OP(=O)(O)O)[C@@H]3O)[C@@H](O)[C@H]2O)C=CC1` [NADPH, nicotinamide adenine dinucleotide phosphate] yielded a Kd (T113V/G121S-ecDHFR [1]) of 77.5 ± 19.2 µM, a Kd (M42F/G121S-ecDHFR [2]) of 116 ± 20.1 µM and a ΔG1 (T113V/G121S-ecDHFR [3]) of 5.98 kcal/mol. The ΔG2 (T113V/G121S-ecDHFR [3]) was 5.12 kcal/mol, the “ΔG′1” value (T113V/G121S-ecDHFR [3]) was 5.19 kcal/mol and the “ΔG′2” value (T113V/G121S-ecDHFR [3]) was 4.33 kcal/mol. The ΔΔG (T113V/G121S-ecDHFR [3]) was “–0.79 kcal/mole”, the Kd (G121V-ecDHFR [4]) was 12.2 ± 1.41 µM and the Kd (G121S-ecDHFR [5]) was 9.73 ± 2.4 µM. For the same compound, the Kd (wildtype ecDHFR [6]; KD^NADPH, 5 μM ecDHFR, ΔF340nm analysis, fitted up to 100 μM NADPH) was 1.23 ± 0.06 µM, the “KD^NADPH weaker than previous reports” value (wildtype ecDHFR [6]; versus 0.34 and […]) was 3∼4 fold and the Kd (T113V/G121V-ecDHFR [7]) was 137 ± 1.94 µM. For the same compound, the Kd (M42F/G121V-ecDHFR [8]) was 74 ± 9.09 µM, the ΔG1 (M42F/G121V-ecDHFR [9]) was 8.20 kcal/mol and the ΔG2 (M42F/G121V-ecDHFR [9]) was 5.69 kcal/mol. For the same compound, the “ΔG′1” value (M42F/G121V-ecDHFR [9]) was 4.45 kcal/mol, the “ΔG′2” value (M42F/G121V-ecDHFR [9]) was 1.95 kcal/mol and the ΔΔG (M42F/G121V-ecDHFR [9]) was “–3.75 kcal/mole”. For the same compound, the Kd (T113V-ecDHFR) was 13.7 ± 1.82 µM, the ΔG1 (T113V/G121V-ecDHFR [10]) was 5.98 kcal/mol and the ΔG2 (T113V/G121V-ecDHFR [10]) was 5.69 kcal/mol. For the same compound, the “ΔG′1” value (T113V/G121V-ecDHFR [10]) was 5.99 kcal/mol, the “ΔG′2” value (T113V/G121V-ecDHFR [10]) was 5.71 kcal/mol and the ΔΔG (T113V/G121V-ecDHFR [10]) was 0.02 kcal/mol. For the same compound, the ΔG1 (M42F/G121S-ecDHFR [11]) was 8.20 kcal/mol, the ΔG2 (M42F/G121S-ecDHFR [11]) was 5.12 kcal/mol and the “ΔG′1” value (M42F/G121S-ecDHFR [11]) was 6.13 kcal/mol. For the same compound, the “ΔG′2” value (M42F/G121S-ecDHFR [11]) was 3.06 kcal/mol, the ΔΔG (M42F/G121S-ecDHFR [11]) was “–2.06 kcal/mole” and the NADPH binding weakened (G121V-ecDHFR [12]) was 40 fold. The NADPH binding weakened (G121S-ecDHFR [13]) was 10 fold, the Kd (M42F-ecDHFR) was 33.6 ± 2.67 µM and the Kd (wildtype ecDHFR [14]) was 0.34 µM and 0.44 µM.
